Each compound was assayed against Protein Kinase C beta 2 (PKCβII) (Homo sapiens (Human), UniProt P05771) (assay: PKCβII coupled PK/LDH spectrophotometric kinase assay). Conditions: apparent Ki, ATP-competitive model (Morrison equation); 0.1 mM ATP, 30° C.; read-out: PKCb Ki.
Protein Kinase C beta 2 (PKCβII), sequence (P05771 other isoform, or with tags, fused parts or gaps): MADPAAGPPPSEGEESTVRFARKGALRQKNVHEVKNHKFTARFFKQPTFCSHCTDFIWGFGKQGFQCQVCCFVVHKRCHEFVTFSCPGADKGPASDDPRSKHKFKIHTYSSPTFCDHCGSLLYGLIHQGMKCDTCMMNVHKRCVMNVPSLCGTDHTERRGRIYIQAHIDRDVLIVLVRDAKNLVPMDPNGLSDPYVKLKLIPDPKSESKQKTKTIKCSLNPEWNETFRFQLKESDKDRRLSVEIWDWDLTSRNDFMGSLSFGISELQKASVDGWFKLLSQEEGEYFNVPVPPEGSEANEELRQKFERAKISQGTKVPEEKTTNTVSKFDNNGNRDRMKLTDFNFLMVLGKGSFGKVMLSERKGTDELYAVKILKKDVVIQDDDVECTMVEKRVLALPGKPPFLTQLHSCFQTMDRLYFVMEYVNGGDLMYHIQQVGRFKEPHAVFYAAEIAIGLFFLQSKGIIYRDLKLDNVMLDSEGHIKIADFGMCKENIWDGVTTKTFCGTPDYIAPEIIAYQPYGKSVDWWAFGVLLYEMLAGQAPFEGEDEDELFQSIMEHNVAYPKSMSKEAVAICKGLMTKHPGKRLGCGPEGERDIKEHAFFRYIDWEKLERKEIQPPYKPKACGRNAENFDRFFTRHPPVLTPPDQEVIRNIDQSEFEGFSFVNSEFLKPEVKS
Assay type: biochemical
Experimental: This transfer is coupled to the oxidation of β-NADH through the activities of Pyruvate Kinase (PK) and Lactate Dehydrogenase (LDH). β-NADH conversion to NAD+ is monitored by the decrease in absorbance at 340 nm (e=6.22 cm^−1 mM^−1) using a Molecular Devices SPECTRA max PLUS spectrophotometer.
A typical assay was carried out on a 96-well, clear microtiter plate in a Molecular Devices spectrophotometer for 20 minutes at 30° C. in 0.1 mL of assay buffer containing 50 mM HEPES, pH 7.4, 5 nM PKC, 23 units of pyruvate kinase, 33 units of lactate dehydrogenase, 0.15 mM peptide, 0.1 mM ATP, 1 mM DTT, 4 mM PEP, 8 mM MgCl2, 0.3 mM NADH, 60 mM CaCl2, 10 mg/mL PS, 50 ng/mL PMA, 7.5% DMSO and from about 10,000 nM to 0.169 nM compound inhibitor. Stock solutions of 3-sn-phosphatidyl-L-serine (PS) and phorbol-12-myristate-13-acetate (PMA) were sonicated for 30 seconds just prior to addition to assay buffer and assays were initiated by the addition of 100 μM ATP.
Enzyme turnover values (kcat) were calculated according to […], where [E] is the total enzyme concentration. Enzyme inhibition constants (apparent K values) were determined by fitting initial velocities at variable inhibitor concentrations to a model for ATP competitive inhibition based on the Morrison equation). Morrison, J. F., Biochim. Biophys Acta 185: 269-286 (1969).
In the case of `C[C@H]1CN2CCC[C@H]2CN1C(=O)N1Cc2c(NC(=O)c3ccc4c(c3)CCO4)n[nH]c2C1(C)C` [Example A64], the Ki is reported as 15.9 nM. In the case of `Cc1cccc(C(=O)Nc2n[nH]c3c2CN(C(=O)N2C[C@@H]4CCCN4C[C@@H]2C)C3(C)C)c1` [Example A65], the Ki is reported as 54.5 nM. For `C[C@H]1CN2CCC[C@H]2CN1C(=O)N1Cc2c(NC(=O)c3ccc(C#N)cc3F)n[nH]c2C1(C)C` [Example A66], the Ki was 122 nM. In the case of `C[C@H]1CN2CCC[C@H]2CN1C(=O)N1Cc2c(NC(=O)c3ccc(Cl)cn3)n[nH]c2C1(C)C` [Example A67], the Ki is reported as 24.3 nM. Compound `C[C@H]1CN2CCC[C@H]2CN1C(=O)N1Cc2c(NC(=O)c3cc(Cl)ccn3)n[nH]c2C1(C)C` [Example A68] has a Ki of 21.3 nM. In the case of `CC[C@H]1CN2CCC[C@H]2CN1C(=O)N1Cc2c(NC(=O)c3ccccc3)n[nH]c2C1(C)C` [Example A69], the Ki is reported as 67.8 nM. Work on `CC[C@H]1CN2CCC[C@H]2CN1C(=O)N1Cc2c(NC(=O)c3ccccn3)n[nH]c2C1(C)C` [Example A70] yielded a Ki of 46.2 nM. In the case of `CC[C@H]1CN2CCC[C@H]2CN1C(=O)N1Cc2c(NC(=O)c3cccc(Cl)c3)n[nH]c2C1(C)C` [Example A71], the Ki is reported as 49.9 nM. In the case of `CC[C@H]1CN2CCC[C@H]2CN1C(=O)N1Cc2c(NC(=O)c3ccccc3F)n[nH]c2C1(C)C` [Example A72], the Ki is reported as 105 nM. Compound `CC[C@H]1CN2CCC[C@H]2CN1C(=O)N1Cc2c(NC(=O)c3ccc(F)cc3)n[nH]c2C1(C)C` [Example A73] has a Ki of 115 nM. With `C[C@H]1CN2CCC[C@H]2CN1C(=O)N1Cc2c(NC(=O)c3nc(Cl)c(Cl)s3)n[nH]c2C1(C)C` [Example A74] the Ki was 10.4 nM. With `Cc1cc(C(=O)Nc2n[nH]c3c2CN(C(=O)N2C[C@@H]4CCCN4C[C@@H]2C)C3(C)C)nc(C)n1` [Example A75] the Ki was 56.9 nM. With `C[C@H]1CN2CCC[C@H]2CN1C(=O)N1Cc2c(NC(=O)c3cc4cccn4cn3)n[nH]c2C1(C)C` [Example A76] the Ki was 13.9 nM. For `C[C@H]1CN2CCC[C@@H]2CN1C(=O)N1Cc2c(NC(=O)c3ccccn3)n[nH]c2C1(C)C` [Example A77], the Ki was 77.8 nM. `CC1(C)c2[nH]nc(NC(=O)c3ccccn3)c2CN1C(=O)N1C[C@@H]2CCCN2C[C@@H]1CO` [Example A78] gave a Ki of 165 nM. Work on `CCC1CN(C(=O)N2Cc3c(NC(=O)c4ccccn4)n[nH]c3C2(C)C)CCN1C` (stereo not shown) [Example A79] yielded a Ki of 79.6 nM. `CC[C@H](C)[C@H]1CN2CCC[C@@H]2CN1C(=O)N1Cc2c(NC(=O)c3ccccn3)n[nH]c2C1(C)C` [Example A80] showed a Ki of 129 nM. Compound `CC1(C)CN2CCC[C@H]2CN1C(=O)N1Cc2c(NC(=O)c3ccccn3)n[nH]c2C1(C)C` [Example A81] has a Ki of 125 nM. Compound `CC1(C)CN2CCC[C@H]2CN1C(=O)N1Cc2c(NC(=O)c3ccccn3)n[nH]c2C1(C)C` [Example A82] has a Ki of 81.8 nM. Work on `CCCN1C[C@H](C)N(C(=O)N2Cc3c(NC(=O)c4ccccn4)n[nH]c3C2(C)C)C[C@H]1CCO` [Example A83] yielded a Ki of 9.53 nM. Work on `CC[C@H](C)[C@H]1CN2C[C@H](O)C[C@H]2CN1C(=O)N1Cc2c(NC(=O)c3ccccn3)n[nH]c2C1(C)C` [Example A84] yielded a Ki of 139 nM. `CC[C@H](C)[C@H]1CN2C[C@H](O)C[C@H]2CN1C(=O)N1Cc2c(NC(=O)c3ccccn3)n[nH]c2C1(C)C` [Example A85] showed a Ki of 15.2 nM. `CCC1(C)c2[nH]nc(NC(=O)c3ncc(F)cc3F)c2CN1C(=O)C1C[C@@H]2CCCN2C[C@@H]1C` (stereo partly shown) [Example A86] gave a Ki of 74.1 nM. `C[C@H]1CN2CCC[C@H]2CN1C(=O)N1Cc2c(NC(=O)c3cc(N(C)C)ccn3)n[nH]c2C1(C)C` [Example A87] was tested, and the Ki was 32.3 nM. In the case of `C[C@H]1CN2CCC[C@H]2CN1C(=O)N1Cc2c(NC(=O)c3ccc4ccccc4n3)n[nH]c2C1(C)C` [Example A88], the Ki is reported as 17.8 nM. For `C=CCN1C[C@H](C)N(C(=O)N2Cc3c(NC(=O)c4ccccn4)n[nH]c3C2(C)C)C[C@H]1C` [Example A89], the Ki was 15.7 nM. `CC[C@H]1CN2CCC[C@@H]2CN1C(=O)N1Cc2c(CC(=O)c3ccccn3)n[nH]c2C1(C)C` [Example A90] showed a Ki of 107 nM. For `C[C@H]1CN2CCC[C@H]2CN1C(=O)N1Cc2c(NC(=O)c3ccc(Br)cn3)n[nH]c2C1(C)C` [Example A91], the Ki was 20.3 nM. `C[C@H]1CN2CCC[C@H]2CN1C(=O)N1Cc2c(NC(=O)c3ccc(F)cn3)n[nH]c2C1(C)C` [Example A92] showed a Ki of 20.3 nM. Work on `COCCN1C[C@H](C)N(C(=O)N2Cc3c(NC(=O)c4ccccn4)n[nH]c3C2(C)C)C[C@H]1C` [Example A93] yielded a Ki of 63.6 nM. `CCN1C[C@H](C)N(C(=O)N2Cc3c(NC(=O)c4ccccn4)n[nH]c3C2(C)C)C[C@H]1C` [Example A95] gave a Ki of 9.11 nM. With `CC1CN(C(=O)N2Cc3c(NC(=O)c4ccccn4)n[nH]c3C2(C)C)C(C)CN1CCCO` (stereo not shown) [Example A99] the Ki was 19.9 nM. `CC(C)[C@H]1CN2CCC[C@H]2CN1C(=O)N1Cc2c(NC(=O)c3ccccn3)n[nH]c2C1(C)C` [Example A100] gave a Ki of 14.1 nM. `CC(C)[C@H]1CN2CCC[C@H]2CN1C(=O)N1Cc2c(NC(=O)c3ccc(F)cc3F)n[nH]c2C1(C)C` [Example A101] showed a Ki of 148 nM. `CCCN1C[C@H](C)N(C(=O)N2Cc3c(NC(=O)c4ccc(F)cc4F)n[nH]c3C2(C)C)C[C@H]1CCO` [Example A102] was tested, and the Ki was 45.9 nM. `C[C@H]1CN2CCC[C@H]2CC1C(=O)N1Cc2c(NC(=O)c3csc(Br)n3)n[nH]c2C1(C)C` (stereo partly shown) [Example A103] was tested, and the Ki was 12.9 nM. In the case of `C[C@H]1CN2C[C@H]3CC3[C@H]2CN1C(=O)N1Cc2c(NC(=O)c3ccccn3)n[nH]c2C1(C)C` (stereo partly shown) [Example A104], the Ki is reported as 83.7 nM. With `C[C@H]1CN2C[C@@H](F)C[C@H]2CN1C(=O)N1Cc2c(NC(=O)c3ccccn3)n[nH]c2C1(C)C` [Example A105] the Ki was 109 nM. `C[C@H]1CN2CCC[C@H]2CN1C(=O)N1Cc2c(NC(=O)C3CCCCO3)n[nH]c2C1(C)C` (stereo partly shown) [Example A112] showed a Ki of 186 nM. `C[C@@H]1CN(C(=O)N2Cc3c(NC(=O)c4ccccn4)n[nH]c3C2(C)C)[C@@H](C)CN1C` [Example A113] was tested, and the Ki was 13.9 nM. `C[C@H]1CN(C)C(C)(C)CN1C(=O)N1Cc2c(NC(=O)c3ccc(F)cc3F)n[nH]c2C1(C)C` [Example A114] was tested, and the Ki was 87.1 nM. In the case of `CC[C@H]1CN(C(=O)N2Cc3c(NC(=O)c4ccccn4)n[nH]c3C2(C)C)[C@@H](C)CN1C` [Example A125], the Ki is reported as 93.9 nM. Work on `CCN1C[C@H](C)N(C(=O)N2Cc3c(NC(=O)c4ccc(F)cn4)n[nH]c3C2(C)C)C[C@@H]1C` [Example A126] yielded a Ki of 22.2 nM. `CC1CN(C(=O)N2Cc3c(NC(=O)c4ccccn4)n[nH]c3C2(C)C)CCN1CC1CC1` (stereo not shown) [Example A127] showed a Ki of 134 nM. For `CCN1CCN(C(=O)N2Cc3c(NC(=O)c4ccccn4)n[nH]c3C2(C)C)CC1C` (stereo not shown) [Example A128], the Ki was 156 nM. `C[C@H]1CN(C)C(C)(C)CN1C(=O)N1Cc2c(NC(=O)c3ccccn3)n[nH]c2C1(C)C` [Example A129] showed a Ki of 18.1 nM. Compound `C[C@H]1CN2CCC[C@H]2CN1C(=O)N1Cc2c(NC(=O)c3ccc(C(F)(F)F)cn3)n[nH]c2C1(C)C` [Example A130] has a Ki of 31.5 nM. Work on `CC[C@@H]1CN(C(=O)N2Cc3c(NC(=O)c4ccccn4)n[nH]c3C2(C)C)[C@@H](C)CN1C` [Example A131] yielded a Ki of 37.2 nM. For `CCC1(CC)c2[nH]nc(NC(=O)c3ccccn3)c2CN1C(=O)N1C[C@@H]2CCCN2C[C@@H]1C` [Example A132], the Ki was 61.9 nM. With `C[C@H]1CN(C)C2(CCC2)CN1C(=O)N1Cc2c(NC(=O)c3ccccn3)n[nH]c2C1(C)C` [Example A133] the Ki was 8.58 nM. `CC(C)[C@H]1CN(C)C(C)(C)CN1C(=O)N1Cc2c(NC(=O)c3ccccn3)n[nH]c2C1(C)C` [Example A134] gave a Ki of 90.1 nM. `CC(C)[C@H]1CN(C)C(C)CN1C(=O)N1Cc2c(NC(=O)c3ccc(Cl)cn3)n[nH]c2C1(C)C` (stereo partly shown) [Example A135] showed a Ki of 51.2 nM. `C[C@H]1CN2CCC[C@@]2(C)CN1C(=O)N1Cc2c(NC(=O)c3ccc(F)cn3)n[nH]c2C1(C)C` [Example A138] gave a Ki of 29.3 nM. `CC[C@H]1CN2CCC[C@@]2(C)CN1C(=O)N1Cc2c(NC(=O)c3ccc(F)cn3)n[nH]c2C1(C)C` [Example A139] gave a Ki of 75.2 nM. `C[C@@H]1CN(C(=O)N2Cc3c(NC(=O)c4cc(C5CC5)on4)n[nH]c3C2(C)C)[C@@H](C)CN1C` [Example A140] showed a Ki of 26.8 nM. `C[C@@H]1CN(C(=O)N2Cc3c(NC(=O)c4ccccn4)n[nH]c3C2(C)C)[C@@H](C)CN1CCCC#N` [Example A141] gave a Ki of 23.6 nM. `C[C@@H]1CN(C(=O)N2Cc3c(NC(=O)c4ccccn4)n[nH]c3C2(C)C)[C@@H](C)CN1CC1CCOCC1` [Example A143] was tested, and the Ki was 1.9 nM. Compound `C[C@@H]1CN(C(=O)N2Cc3c(NC(=O)c4ccccn4)n[nH]c3C2(C)C)[C@@H](C)CN1CCCCC#N` [Example A144] has a Ki of 38.3 nM. Compound `C[C@@H]1CN(C(=O)N2Cc3c(NC(=O)c4ccccn4)n[nH]c3C2(C)C)[C@@H](C)CN1CCC1CCOCC1` [Example A145, N-(5-((2R,5S)-2,5-dimethyl-1-(2(tetradehydro-2H-pyran-4-yl)methyl)piperazine-4-carbonyl)-6,6-dimethyl-1,4,5,6-tetrahydropyrrolo[3,4-c]pyrazol-3-yl)picolinamide] has a Ki of 17.6 nM. For `C[C@@H]1CN(C(=O)N2Cc3c(NC(=O)c4ccccn4)n[nH]c3C2(C)C)[C@@H](C)CN1C1CCOCC1` [Example A146], the Ki was 1.7 nM. `C[C@@H]1CN(C(=O)N2Cc3c(NC(=O)c4ccccn4)n[nH]c3C2(C)C)[C@@H](C)CN1CC1CCOC1` (stereo partly shown) [Example A147] was tested, and the Ki was under 10 nM.

From patent publication US8999981B2, “3-amido-pyrrolo[3,4-C]pyrazole-5(1H, 4H,6H) carbaldehyde derivatives” (Pfizer Inc., priority 2007, dated 2015)
